Reference: US20150141336A1, “Pancreatic Peptide Compounds and Use” (Novo Nordisk A/S, priority 2012, published 2015)
Numbered stars: 1 amine (or outer) side, 2 acyl side, 3 side chain; on linkers, the order of the positions; unused ones are H or OH. Side chains are listed from the residue outwards. Peptide text beside a SMILES is read from it. * marks the point of attachment. C18 diacid = O=C(O)CCCCCCCCCCCCCCCCC(=O)*; γGlu = O=C(O)[C@H](CCC(=O)[*:2])N[*:1]; AEEA = NCCOCCOCC(=O)O

assay: Assay (II) PK i.v. minipig, in vivo half-life; set-up: species or system Göttingen mini-pigs; details: male, Göttingen, minipig, iv, Half-life minipig, Assay (II)
Procedure: An assay useful for measuring the pharmacokinetic (PK) profile of the PP peptide is the following mini-pig PK assay.
Five male Göttingen mini-pigs weighing approximately 18 to 22 kg from Ellegaard Göttingen Minipigs NS, Denmark are included in the study. The mini-pigs have two central venous catheters inserted which are used for intra venous (i.v.) dosing and blood sampling. The test compound is dissolved in 50 mM K2HPO4, 0.05% tween 80, pH=8.0 to a concentration of 180 nmol/ml. For comparison a control compound, such as human PP(1-36), may be administered. The pigs are dosed with 6 nmol test compound/kg body weight. Blood samples are taken at the following time points: pre-dose, 30 minutes, 1, 2, 4, 8, 24, 48, 72, 96, 120, 168 and 240 hours post dosing. The blood samples were collected into test tubes containing EDTA buffer for stabilization and kept on ice for max. 20 minutes before centrifugation. The centrifugation procedure to separate plasma may be: 4° C., approx. 2500 g for 10 minutes. Plasma is collected and immediately transferred to Micronic tubes stored at −20° C. until assayed.
The test compounds were assayed in plasma by Turbulent Flow Chromatography coupled to Liquid Chromatography with subsequent Tandem Mass Spectrometric Detection (TFC/LC/MS/MS). Positive mode ionization and Multiple Reaction Monitoring (MRM) of a multiple protonated species fragmented to a singly charged ion was employed for selectivity. The selectivity of the method allows multiple compounds to be quantified in one sample.
The concentrations of the test compound in samples of unknown concentration were calculated using the peak area as a function of amount. Calibration graphs based on plasma samples spiked with the analyte were constructed by regression analysis. Typical dynamic range for standard assay was 1-2000 nmol/I. The method performance was assured by co-assaying quality control (QC) samples in duplicate at three concentration levels.
Stock and working solutions of analytes were prepared in plasma and incubated by 37° C. for 1 hour.
Sample Preparation: 40.0 μl EDTA-plasma was added 160 μl 50% methanol, 1% formic acid, then vortexed and centrifuged at 16457 g at 4° C. for 20 minutes. The supernatant was transferred to a 96 well plate, plates incubated with 0.4% BSA, 37° C. for ½ hour. Injection volume was 25 μl.
The analysis was carried out on a Sciex API 3000 mass spectrometer (MDS/Sciex, Concord, ON, Canada) using a TurbolonSpray interface. The TFC/LC system consisted of two Flux Rheos 2000 quaternary pumps, a Cohesive VIM module (Cohesive Technologies, Franklin, Mass., USA) and a CTC LC/PAL auto sampler (CTC Analytics, Zingen, Switzerland). The centrifuge employed was a HettichMikro 22R (A. Hettich, Tuttlingen, Germany). For sample clean up a TurboFlow C8 column (0.5×50 mm) (Cohesive Technologies/Thermofisher) was used and the LC separation was done on a Proteo 4 μm column (2.0×50 mm) (Phenomenex, Torrance, Calif., USA). Eluents were isocratic and gradient combinations of methanol, acetonitril, Milli-Q water and formic acid.
Non-compartmental analysis (NCA): Plasma concentration-time profiles are analyzed by non-compartmental pharmacokinetics analysis (NCA) using WinNonlin Professional 5.0 (Pharsight Inc., Mountain View, Calif., USA). NCA is performed using the individual plasma concentration-time profiles from each animal.

| Structure (SMILES) | half-life [h] |
| --- | --- |
| CSCC[C@H](NC(=O)[C@H](CCC(N)=O)NC(=O)[C@H](CCC(=O)O)NC(=O)[C@@H]1CCCN1C(=O)[C@@H](NC(=O)[C@H](C)NC(=O)[C@H](CC(N)=O)NC(=O)[C@H](CC(=O)O)NC(=O)CNC(=O)[C@@H]1CCCN1C(=O)[C@H](Cc1ccc(O)cc1)NC(=O)[C@@H](NC(=O)[C@@H]1CCCN1C(=O)[C@H](CCC(=O)O)NC(=O)[C@@H](N)CC(C)C)C(C)C)[C@@H](C)O)C(=O)N[C@@H](C)C(=O)N[C@@H](CCC(N)=O)C(=O)N[C@@H](Cc1ccc(O)cc1)C(=O)N[C@@H](C)C(=O)N[C@@H](C)C(=O)N[C@@H](CC(=O)O)C(=O)N[C@@H](CC(C)C)C(=O)N[C@@H](CCCNC(=N)N)C(=O)N[C@@H](CCCNC(=N)N)C(=O)N[C@@H](Cc1ccc(O)cc1)C(=O)N[C@@H](CCCCNC(=O)COCCOCCNC(=O)COCCOCCNC(=O)CC[C@H](NC(=O)CCCCCCCCCCCCCCCCC(=O)O)C(=O)O)C(=O)N[C@@H](CC(N)=O)C(=O)N[C@@H](CCSC)C(=O)N[C@@H](CC(C)C)C(=O)N[C@H](C(=O)N[C@@H](CCCNC(=N)N)C(=O)N1CCC[C@H]1C(=O)N[C@@H](CCCNC(=N)N)C(=O)N[C@@H](Cc1ccc(O)cc1)C(N)=O)[C@@H](C)O [Compound AN] (H-LEPVYPGDNATPEQMAQYAADLRRYK([AEEA-AEEA-γGlu-C18 diacid])NMLTRPRY-NH2; N-terminus and C-terminus assumed) | 69 |
| CC[C@H](C)[C@H](NC(=O)[C@H](CCCCNC(=O)COCCOCCNC(=O)COCCOCCNC(=O)CC[C@H](NC(=O)CCCCCCCCCCCCCCCCC(=O)O)C(=O)O)NC(=O)[C@H](CCCNC(=N)N)NC(=O)[C@H](CCCNC(=N)N)NC(=O)[C@H](CC(C)C)NC(=O)[C@H](CC(=O)O)NC(=O)[C@H](C)NC(=O)[C@H](C)NC(=O)[C@H](Cc1ccc(O)cc1)NC(=O)[C@H](CCC(N)=O)NC(=O)[C@H](C)NC(=O)[C@H](CCSC)NC(=O)[C@H](CCC(N)=O)NC(=O)[C@H](CCC(=O)O)NC(=O)[C@@H]1CCCN1C(=O)[C@@H](NC(=O)[C@H](C)NC(=O)[C@H](CC(N)=O)NC(=O)[C@H](CC(=O)O)NC(=O)CNC(=O)[C@@H]1CCCN1C(=O)[C@H](Cc1ccc(O)cc1)NC(=O)[C@@H](NC(=O)[C@@H]1CCCN1C(=O)[C@H](CCC(=O)O)NC(=O)[C@@H](N)CC(C)C)C(C)C)[C@@H](C)O)C(=O)N[C@@H](CC(N)=O)C(=O)N[C@@H](CCSC)C(=O)N[C@@H](CC(C)C)C(=O)N[C@H](C(=O)N[C@@H](CCCNC(=N)N)C(=O)N1CCC[C@H]1C(=O)N[C@@H](CCCNC(=N)N)C(=O)N[C@@H](Cc1ccc(O)cc1)C(N)=O)[C@@H](C)O [Compound AO] (H-LEPVYPGDNATPEQMAQYAADLRRK([AEEA-AEEA-γGlu-C18 diacid])INMLTRPRY-NH2; N-terminus and C-terminus assumed) | 44 |
| CC[C@H](C)[C@H](NC(=O)[C@H](Cc1ccc(O)cc1)NC(=O)[C@H](CCCNC(=N)N)NC(=O)[C@H](CCCCNC(=O)COCCOCCNC(=O)COCCOCCNC(=O)CC[C@H](NC(=O)CCCCCCCCCCCCCCCCC(=O)O)C(=O)O)NC(=O)[C@H](CC(C)C)NC(=O)[C@H](CC(=O)O)NC(=O)[C@H](C)NC(=O)[C@H](C)NC(=O)[C@H](Cc1ccc(O)cc1)NC(=O)[C@H](CCC(N)=O)NC(=O)[C@H](C)NC(=O)[C@H](CCSC)NC(=O)[C@H](CCC(N)=O)NC(=O)[C@H](CCC(=O)O)NC(=O)[C@@H]1CCCN1C(=O)[C@@H](NC(=O)[C@H](C)NC(=O)[C@H](CC(N)=O)NC(=O)[C@H](CC(=O)O)NC(=O)CNC(=O)[C@@H]1CCCN1C(=O)[C@H](Cc1ccc(O)cc1)NC(=O)[C@@H](NC(=O)[C@@H]1CCCN1C(=O)[C@H](CCC(=O)O)NC(=O)[C@@H](N)CC(C)C)C(C)C)[C@@H](C)O)C(=O)N[C@@H](CC(N)=O)C(=O)N[C@@H](CCSC)C(=O)N[C@@H](CC(C)C)C(=O)N[C@H](C(=O)N[C@@H](CCCNC(=N)N)C(=O)N1CCC[C@H]1C(=O)N[C@@H](CCCNC(=N)N)C(=O)N[C@@H](Cc1ccc(O)cc1)C(N)=O)[C@@H](C)O [Compound AQ] (H-LEPVYPGDNATPEQMAQYAADLK([AEEA-AEEA-γGlu-C18 diacid])RYINMLTRPRY-NH2; N-terminus and C-terminus assumed) | 48 |
| CC[C@H](C)[C@H](NC(=O)[C@H](Cc1ccc(O)cc1)NC(=O)[C@H](CCCNC(=N)N)NC(=O)[C@H](CCCNC(=N)N)NC(=O)[C@H](CCCCNC(=O)COCCOCCNC(=O)COCCOCCNC(=O)CC[C@H](NC(=O)CCCCCCCCCCCCCCCCC(=O)O)C(=O)O)NC(=O)[C@H](CC(=O)O)NC(=O)[C@H](C)NC(=O)[C@H](C)NC(=O)[C@H](Cc1ccc(O)cc1)NC(=O)[C@H](CCC(N)=O)NC(=O)[C@H](C)NC(=O)[C@H](CCSC)NC(=O)[C@H](CCC(N)=O)NC(=O)[C@H](CCC(=O)O)NC(=O)[C@@H]1CCCN1C(=O)[C@@H](NC(=O)[C@H](C)NC(=O)[C@H](CC(N)=O)NC(=O)[C@H](CC(=O)O)NC(=O)CNC(=O)[C@@H]1CCCN1C(=O)[C@H](Cc1ccc(O)cc1)NC(=O)[C@@H](NC(=O)[C@@H]1CCCN1C(=O)[C@H](CCC(=O)O)NC(=O)[C@@H](N)CC(C)C)C(C)C)[C@@H](C)O)C(=O)N[C@@H](CC(N)=O)C(=O)N[C@@H](CCSC)C(=O)N[C@@H](CC(C)C)C(=O)N[C@H](C(=O)N[C@@H](CCCNC(=N)N)C(=O)N1CCC[C@H]1C(=O)N[C@@H](CCCNC(=N)N)C(=O)N[C@@H](Cc1ccc(O)cc1)C(N)=O)[C@@H](C)O [Compound AR] (H-LEPVYPGDNATPEQMAQYAADK([AEEA-AEEA-γGlu-C18 diacid])RRYINMLTRPRY-NH2; N-terminus and C-terminus assumed) | 31 |
| CC[C@H](C)[C@H](NC(=O)[C@H](Cc1ccc(O)cc1)NC(=O)[C@H](CCCNC(=N)N)NC(=O)[C@H](CCCNC(=N)N)NC(=O)[C@H](CC(C)C)NC(=O)[C@H](CCCCNC(=O)COCCOCCNC(=O)COCCOCCNC(=O)CC[C@H](NC(=O)CCCCCCCCCCCCCCCCC(=O)O)C(=O)O)NC(=O)[C@H](C)NC(=O)[C@H](C)NC(=O)[C@H](Cc1ccc(O)cc1)NC(=O)[C@H](CCC(N)=O)NC(=O)[C@H](C)NC(=O)[C@H](CCSC)NC(=O)[C@H](CCC(N)=O)NC(=O)[C@H](CCC(=O)O)NC(=O)[C@@H]1CCCN1C(=O)[C@@H](NC(=O)[C@H](C)NC(=O)[C@H](CC(N)=O)NC(=O)[C@H](CC(=O)O)NC(=O)CNC(=O)[C@@H]1CCCN1C(=O)[C@H](Cc1ccc(O)cc1)NC(=O)[C@@H](NC(=O)[C@@H]1CCCN1C(=O)[C@H](CCC(=O)O)NC(=O)[C@@H](N)CC(C)C)C(C)C)[C@@H](C)O)C(=O)N[C@@H](CC(N)=O)C(=O)N[C@@H](CCSC)C(=O)N[C@@H](CC(C)C)C(=O)N[C@H](C(=O)N[C@@H](CCCNC(=N)N)C(=O)N1CCC[C@H]1C(=O)N[C@@H](CCCNC(=N)N)C(=O)N[C@@H](Cc1ccc(O)cc1)C(N)=O)[C@@H](C)O [Compound AS] (H-LEPVYPGDNATPEQMAQYAAK([AEEA-AEEA-γGlu-C18 diacid])LRRYINMLTRPRY-NH2; N-terminus and C-terminus assumed) | 10 |
| CC[C@H](C)[C@H](NC(=O)[C@H](Cc1ccc(O)cc1)NC(=O)[C@H](CCCNC(=N)N)NC(=O)[C@H](CCCNC(=N)N)NC(=O)[C@H](CC(C)C)NC(=O)[C@H](CC(=O)O)NC(=O)[C@H](CCCCNC(=O)COCCOCCNC(=O)COCCOCCNC(=O)CC[C@H](NC(=O)CCCCCCCCCCCCCCCCC(=O)O)C(=O)O)NC(=O)[C@H](C)NC(=O)[C@H](Cc1ccc(O)cc1)NC(=O)[C@H](CCC(N)=O)NC(=O)[C@H](C)NC(=O)[C@H](CCSC)NC(=O)[C@H](CCC(N)=O)NC(=O)[C@H](CCC(=O)O)NC(=O)[C@@H]1CCCN1C(=O)[C@@H](NC(=O)[C@H](C)NC(=O)[C@H](CC(N)=O)NC(=O)[C@H](CC(=O)O)NC(=O)CNC(=O)[C@@H]1CCCN1C(=O)[C@H](Cc1ccc(O)cc1)NC(=O)[C@@H](NC(=O)[C@@H]1CCCN1C(=O)[C@H](CCC(=O)O)NC(=O)[C@@H](N)CC(C)C)C(C)C)[C@@H](C)O)C(=O)N[C@@H](CC(N)=O)C(=O)N[C@@H](CCSC)C(=O)N[C@@H](CC(C)C)C(=O)N[C@H](C(=O)N[C@@H](CCCNC(=N)N)C(=O)N1CCC[C@H]1C(=O)N[C@@H](CCCNC(=N)N)C(=O)N[C@@H](Cc1ccc(O)cc1)C(N)=O)[C@@H](C)O [Compound AT] (H-LEPVYPGDNATPEQMAQYAK([AEEA-AEEA-γGlu-C18 diacid])DLRRYINMLTRPRY-NH2; N-terminus and C-terminus assumed) | 34 |
